For orientation: EC50 means the concentration needed to bring the measured effect to its halfway point. As usually defined, the AC50 is the concentration at which the activity in the assay is half-maximal.

Data on 28 compounds can be found in ChEMBL document CHEMBL1201862, “PubChem BioAssay data set” (2004).

Experiment [1] can be described thus: Luminescence Cell-Based Dose Confirmation HTS to Identify Activators of 5'UTR Stem-Loop Driven Alpha-Synuclein mRNA Translation in H4 Neuroglioblastoma Cells. [Related pubchem assays: 1829 (Project Summary), 1814 (Primary HTS)]. The experiment is classed as functional.
The nature of experiment [2]: Luminescence Cell-Based Dose Response HTS to Identify Activators of Luciferase Translation or Activity in H4 […] Cells. [Related pubchem assays: 1829 (Project Summary), 1814 (Primary HTS)]. The experiment is classed as functional.
For experiment [3], the system named is Streptococcus sp. 'group A'. Briefly: growth inhibition of control SK(-) GAS strain, dose response, counter-screen for streptokinase expression inhibitor project, luminescence, kanamycin, BacTiterGlo, confirmation (AID 1900). The experiment is classed as functional, organism-based.
In the next experiment the test system is H4. Briefly: Luminescence Cell-Based Dose Response HTS to Identify Activators of 5'UTR Stem-Loop Driven Prion Protein mRNA Translation in H4 Neuroglioblastoma Cells. [Related pubchem assays: 1829 (Project Summary), 1814 (Primary HTS)]. The following applies: Homo sapiens. The experiment is classed as functional.
For a further experiment, the target named is T1, Streptokinase A (Streptococcus pyogenes serotype M1, UniProt P10520).
T1 sequence (P10520 whole entry): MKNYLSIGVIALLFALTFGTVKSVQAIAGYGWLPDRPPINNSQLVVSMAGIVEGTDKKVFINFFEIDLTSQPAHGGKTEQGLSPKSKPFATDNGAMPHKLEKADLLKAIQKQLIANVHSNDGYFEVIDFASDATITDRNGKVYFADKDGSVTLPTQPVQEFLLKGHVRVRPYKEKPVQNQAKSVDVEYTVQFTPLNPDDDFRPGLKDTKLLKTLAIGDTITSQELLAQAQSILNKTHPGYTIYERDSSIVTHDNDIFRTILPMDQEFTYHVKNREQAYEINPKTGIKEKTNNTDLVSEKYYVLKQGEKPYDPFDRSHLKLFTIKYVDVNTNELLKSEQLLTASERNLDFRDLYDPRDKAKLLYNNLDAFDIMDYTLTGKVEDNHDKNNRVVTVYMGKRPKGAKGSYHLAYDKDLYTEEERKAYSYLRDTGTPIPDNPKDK
Briefly: S. pyogenes streptokinase expression inhibitors, potency, dose response, plasminogen activation absorbance, OD405 (AID 1914).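 Further: secreted streptokinase activity via plasminogen activation per viability signal from cell pellet.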 The experiment is classed as functional, Streptococcus pyogenes M1 GAS.

In a further experiment the test system is Streptococcus. Briefly: Group A Streptococcus viability loss, dose response, counter-screen for streptokinase expression inhibitor project, luminescence, BacTiterGlo (AID 1915).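 Further: potency for reduction of bacterial viability or growth.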 The experiment is classed as functional, organism-based. Background: The purpose of a counterscreen is to sort out artefacts and off-target activity.
For experiment [4], the target named is T2, Polyadenylate-binding protein 1 (Homo sapiens, UniProt P11940). Briefly: PABP1 MLLE–PAM2 interaction inhibitors, dose response, miRNA deadenylation inhibitor project, biochemical, fluorescence polarization, Cy5-PAM2 peptide, secondary (AID 602260). The following applies: read-out: IC50_Mean. The experiment is classed as functional. A general note: In fluorescence polarisation assays a small probe gives low polarisation when free and higher when bound to something large.
T2 sequence (P11940 whole entry): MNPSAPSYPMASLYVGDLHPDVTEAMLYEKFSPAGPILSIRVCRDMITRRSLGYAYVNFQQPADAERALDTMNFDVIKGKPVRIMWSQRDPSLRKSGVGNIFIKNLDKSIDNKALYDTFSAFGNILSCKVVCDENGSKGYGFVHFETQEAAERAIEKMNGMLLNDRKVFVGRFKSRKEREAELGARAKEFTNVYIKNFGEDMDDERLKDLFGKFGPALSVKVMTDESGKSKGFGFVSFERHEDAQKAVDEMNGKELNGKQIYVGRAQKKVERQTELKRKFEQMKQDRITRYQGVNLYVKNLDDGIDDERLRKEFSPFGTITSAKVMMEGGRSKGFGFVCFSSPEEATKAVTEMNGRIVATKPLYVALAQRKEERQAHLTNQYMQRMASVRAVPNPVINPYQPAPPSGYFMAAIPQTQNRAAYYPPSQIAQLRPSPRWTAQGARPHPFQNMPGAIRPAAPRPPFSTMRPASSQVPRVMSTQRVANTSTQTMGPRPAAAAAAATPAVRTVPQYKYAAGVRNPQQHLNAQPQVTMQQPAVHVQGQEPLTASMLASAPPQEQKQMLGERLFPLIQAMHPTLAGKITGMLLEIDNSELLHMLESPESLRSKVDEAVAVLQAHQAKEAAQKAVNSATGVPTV

Experiment [5] has as its target T2, Polyadenylate-binding protein 1. Briefly: PABP1 MLLE–PAM2 binding inhibitor potency, dose response, biochemical, fluorescence polarization, FITC-PAM2 peptide (AID 602259). The experiment is classed as functional. The following applies: read-out: IC50_Mean.
A further experiment concerns H9c2. Briefly: cells. The experiment is classed as functional, cell-based. The following applies: Rattus norvegicus, H9c2, Myocardium.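 Further: confirmatory concentration-response retest of ultra-high-throughput screening hits for modulation of myocardial damage; cell death induced by hydrogen peroxide oxidative stress; compound pretreatment for 60 min then peroxide exposure for 2 h; potency is for protecting the cells against peroxide damage rather than for killing them.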
A short description of experiment [6]: inhibitors of firefly luciferase expression or activity, dose response, H4 neuroglioma cells, luminescence (AID 1990). The experiment is classed as functional, cell-based.
A short description of experiment [7]: Luminescence Cell-Based Dose Response HTS to Identify Inhibitors of 5'UTR Stem-Loop Driven Prion Protein mRNA Translation in H4 Neuroglioblastoma Cells. [Related pubchem assays: 1827 (Project Summary), 1813 (Primary HTS)]. The experiment is classed as functional.
Experiment [8] is described as follows: inhibitors of SNCA 5'UTR-driven reporter translation, confirmation, H4 neuroglioma cells, luminescence (AID 1988). The experiment is classed as functional, cell-based.
Experiment [9] can be described thus: NIH-3T3 fibroblast cytotoxicity, dose response, cytotoxicity control, cell-based, fluorescence, Alamar Blue, secondary assay (AID 2327).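 Further: NIH-3T3 mouse fibroblasts cultured with fluconazole at 8 µg/mL.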 The experiment is classed as functional. (Resazurin is reduced to fluorescent resorufin, in cell work by metabolically active cells.)
Experiment [10] is described as follows: C. albicans growth with fluconazole, confirmation, fluorescence, retest (AID 2467). The experiment is classed as functional, cell-based.
For a further experiment, the target named is Cytochrome P450 3A4 (Homo sapiens, UniProt P08684).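 Further: CYP3A4 tested as one member of a cytochrome P450 panel screen.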
Chain of Cytochrome P450 3A4 (P08684 whole entry): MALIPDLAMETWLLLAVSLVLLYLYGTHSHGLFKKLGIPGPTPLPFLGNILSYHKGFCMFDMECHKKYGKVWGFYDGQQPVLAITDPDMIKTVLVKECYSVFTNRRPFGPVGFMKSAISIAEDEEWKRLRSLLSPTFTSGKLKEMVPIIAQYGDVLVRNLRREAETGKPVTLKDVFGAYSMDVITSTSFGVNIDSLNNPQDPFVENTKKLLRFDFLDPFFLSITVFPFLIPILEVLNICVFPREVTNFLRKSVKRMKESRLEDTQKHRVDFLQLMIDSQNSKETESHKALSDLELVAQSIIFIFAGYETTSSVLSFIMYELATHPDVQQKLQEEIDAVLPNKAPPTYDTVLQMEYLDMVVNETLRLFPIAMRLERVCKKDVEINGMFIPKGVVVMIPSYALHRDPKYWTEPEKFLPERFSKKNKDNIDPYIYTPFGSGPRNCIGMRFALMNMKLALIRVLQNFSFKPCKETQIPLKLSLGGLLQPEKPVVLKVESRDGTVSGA
Experiment [11] in a line: Luminescence Cell-Based Dose Retest to Confirm Inhibitors of Cancer Stem Cells. [Related pubchem assays (depositor defined):AID2717, AID2721]. The following applies: Homo sapiens. The experiment is classed as functional.
The target in a further experiment is Paired box protein Pax-8 (Homo sapiens, UniProt Q06710). Briefly: inhibitors of PAX8-driven TPO luciferase reporter, dose response, RMG-I cells, cherry-pick (AID 687027).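 Further: luciferase reporter driven by Pax8 target thyroperoxidase promoter measured by SteadyGlo luminescence.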 The experiment is classed as functional, cell-based.
Chain of Paired box protein Pax-8 (Q06710 whole entry): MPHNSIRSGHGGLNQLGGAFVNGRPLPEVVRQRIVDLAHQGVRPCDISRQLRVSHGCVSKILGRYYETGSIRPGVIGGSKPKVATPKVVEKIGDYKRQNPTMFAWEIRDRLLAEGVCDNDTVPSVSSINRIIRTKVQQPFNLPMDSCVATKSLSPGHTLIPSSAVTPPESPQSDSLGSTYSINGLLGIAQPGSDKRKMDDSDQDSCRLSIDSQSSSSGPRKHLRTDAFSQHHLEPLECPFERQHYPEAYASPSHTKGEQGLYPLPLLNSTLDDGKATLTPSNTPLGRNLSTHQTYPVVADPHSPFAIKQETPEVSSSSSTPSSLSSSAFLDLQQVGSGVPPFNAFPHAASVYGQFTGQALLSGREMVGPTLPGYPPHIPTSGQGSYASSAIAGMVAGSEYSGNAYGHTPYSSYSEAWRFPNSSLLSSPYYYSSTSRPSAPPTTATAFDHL
Experiment [12] has as its target T3, Rac GTPase-activating protein 1 (Homo sapiens, UniProt Q9H0H5).
T3 sequence (Q9H0H5 whole entry): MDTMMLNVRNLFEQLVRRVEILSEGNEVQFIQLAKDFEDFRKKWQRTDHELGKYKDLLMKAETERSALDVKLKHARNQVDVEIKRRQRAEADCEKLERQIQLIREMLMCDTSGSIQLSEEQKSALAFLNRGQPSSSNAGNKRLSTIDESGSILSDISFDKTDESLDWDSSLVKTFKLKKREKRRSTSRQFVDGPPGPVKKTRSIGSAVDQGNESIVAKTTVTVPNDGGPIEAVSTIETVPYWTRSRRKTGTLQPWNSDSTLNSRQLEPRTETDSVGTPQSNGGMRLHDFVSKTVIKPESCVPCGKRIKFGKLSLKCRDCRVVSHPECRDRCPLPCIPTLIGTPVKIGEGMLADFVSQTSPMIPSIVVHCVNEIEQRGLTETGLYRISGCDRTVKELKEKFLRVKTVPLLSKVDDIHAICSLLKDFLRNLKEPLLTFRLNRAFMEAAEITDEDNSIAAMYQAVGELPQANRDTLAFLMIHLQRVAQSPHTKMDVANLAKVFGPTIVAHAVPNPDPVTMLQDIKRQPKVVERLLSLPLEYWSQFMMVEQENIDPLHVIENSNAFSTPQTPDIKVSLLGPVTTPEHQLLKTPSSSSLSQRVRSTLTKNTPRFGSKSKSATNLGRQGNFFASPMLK
Briefly: MgcRacGAP GTPase-activating activity inhibitors, confirmation, biochemical, ADP Hunter fluorescence, primary and confirmatory (AID 624330). The experiment is classed as functional.

A short description of experiment [13]: inhibitors of intracellular T. cruzi replication, confirmation, NIH3T3 host cells, beta-gal luminescence (AID 2044).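 Further: intracellular parasites grown in NIH/3T3 mouse fibroblasts as host cells; luminescent beta-galactosidase reporter signal from transgenic T. cruzi replicating inside host cells; inhibitors lower the luminescence signal.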 The experiment is classed as functional, cell-based.
Experiment [14] in a line: cytotoxicity toward NIH3T3 fibroblasts, dose response, counter-screen, cell-based, ATP luminescence, mouse fibroblasts (AID 2010).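 Further: cells exposed to compound for about 90 hours before reading.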 The experiment is classed as functional.

The source made the active and inactive calls. For most assays here, no stated cut-off is given here; in the data, actives have a measured EC50 and inactives only a lower limit. A value given as a limit tells only on which side of the number the result lay.

As to `COc1ccc(/C=C/C(=O)NC(=S)N2CCN(c3ccccc3OC)CC2)cc1`, the EC50 in experiment [1] was 1.67 µM (active); in experiment [2], > 120 µM (not active); in experiment [3], > 150 µM (not active); with H4 it was 7.91 µM (active); at Streptokinase A, > 150 µM (not active); with Streptococcus, > 150 µM (not active).

Regarding `Cc1ccc(N(CC(N)=O)C2SC(=O)N(Cc3ccccc3)C2=O)cc1` (stereo unspecified), the IC50 in [4] and in experiment [5] was > 66 µM (inactive) each time.

For `Cc1ccc([N+](=O)[O-])cc1NC(=S)NC(=O)c1cccnc1`, the IC50 in experiment [4] and in [5] was > 66 µM (inactive) each time.

In the case of `O=C(NCCCCNC(=O)c1nc[nH]c1C(=O)Nc1cccc(Cl)c1)c1nc[nH]c1C(=O)Nc1cccc(Cl)c1`, the IC50 with H9c2 was > 79 µM (inactive).

For the compound `O=C(COC(=O)Cn1[nH]c(=O)c2ccccc2c1=O)Nc1c(Cl)cccc1C(F)(F)F`, the IC50 with H9c2 was > 79 µM (inactive).

Turning to `O=C(COC(=O)c1c2c(nc3ccccc13)/C(=C/c1cccc([N+](=O)[O-])c1)CCC2)NC1CCS(=O)(=O)C1` (stereo unspecified), in the experiment with H9c2, the IC50 was 11.1 µM (active).

Regarding `Clc1ccccc1CNc1nc2ccccc2n2cnnc12`, the EC50 in [6] is 14.2 µM (active); in [7] it was > 120 µM (not active); in experiment [8] it was 35.8 µM (active).

For the compound `O=c1c2ccccc2nc(CSc2[nH]cnc3ncnc2-3)n1-c1ccc(Cl)c(Cl)c1`, the IC50 with H9c2 is > 79 µM (inactive).

With `CCOC(=O)c1cccnc1SCC(=O)NC(C)CC` (stereo unspecified), the 50% effective concentration (EC50) (in experiment [3]; on Streptokinase A; in the experiment with Streptococcus) was > 150 µM (not active) in each case.

Turning to `N#Cc1cc2cc3c(cc2nc1SCC(=O)N1CCOCC1)OCCO3`, the EC50 is > 120 µM (not active) in [7] and 5.54 µM (active) in experiment [8].

In the case of `CCCN1C(=O)c2cc(C(=O)Nc3cccc(C(C)=O)c3)ccc2C1Nc1cccc(C(C)=O)c1` (stereo unspecified), the IC50 in the experiment with H9c2 is > 79 µM (inactive).

On to `COc1cc(C(=O)Nc2cccc(-c3nnc(-c4ccco4)o3)c2)ccc1OC(C)=O`, for which, in the experiment on H9c2, the IC50 is > 79 µM (inactive).

In the case of `O=C(N/N=C/c1cn(-c2ccccc2)nc1-c1cccnc1)c1cccnc1`, the IC50 in the experiment with H9c2 is > 79 µM (inactive).

As for `COc1ccc(C(=O)C2CCCN(Cc3cccn3-c3ccccn3)C2)c(C)c1` (stereo unspecified), the EC50 in experiment [9] is > 160 µM (inactive); in experiment [10], 0.706 µM (active).

As for `COc1ccc(C(=O)Nc2ccc(-c3cn4ccsc4n3)cc2)cc1S(=O)(=O)N1CCOCC1`, the EC50 in experiment [6] is > 120 µM (not active); in experiment [7] it was > 120 µM (not active); in experiment [8], 60.6 µM (active).

For `CN(C(=O)CC(NC(=O)c1ccccc1)(c1ccccc1)c1ccccc1)c1ccccc1`, the EC50 in [9] is 30.5 µM (active); in experiment [10], 4.72 µM (active). The AC50 on Cytochrome P450 3A4 is 0.708 µM (inconclusive).

Consider `Sc1ncnc2c1ncn2C1CCCO1` (stereo unspecified), for which the IC50 in experiment [4] and in experiment [5] was > 66 µM (inactive) throughout.

For `Cc1ccc(C2(c3noc(CN4CCC(c5ccncc5)CC4)n3)CCCC2)cc1`, the EC50 was 19.7 µM (active) in experiment [9] and > 38 µM (not active) in experiment [10]. Moreover, the AC50 in experiment [11] was 0.772 µM (active).

For the compound `COc1ccc(/C=C/C(=O)NC(=S)NNC(=O)Cc2cccs2)cc1`, the EC50 in [3] was 2.45 µM (active); at Streptokinase A it was > 150 µM (not active); in the experiment on Streptococcus, 20.9 µM (active).

Consider `CC(C)C(NC(=O)c1cccs1)C(=O)NC1=NCCS1` (stereo unspecified), for which the IC50 in [4] and in experiment [5] was > 66 µM (inactive) throughout.

As to `CC(/C=C1\SC(=O)N(CC(=O)Nc2ccc(O)cc2)C1=O)=C\c1ccccc1`, the EC50 was 13.8 µM (active) in [3], > 150 µM (not active) on Streptokinase A and 31.1 µM (active) in the experiment on Streptococcus. Also, the AC50 at Paired box protein Pax-8 was 64.3 µM (active).

As to `C/C(=N\NC(=O)c1cc2ccccc2cc1O)c1ccc2c(c1)OCO2`, the EC50 in experiment [3] was 3.73 µM (active); at Streptokinase A, 6.65 µM (active); in the experiment on Streptococcus, 21.9 µM (active).

`COc1ccc(Nc2nc(Nc3ccc(OC)cc3OC)nc(N3CCN(C)CC3)n2)c(OC)c1`: in the experiment with H9c2, the IC50 is > 79 µM (inactive).

Take `O=C(/C=C/c1ccc(-c2ccccc2[N+](=O)[O-])o1)c1ccco1`: the IC50 in [4] and in experiment [5] was > 66 µM (inactive) in each case.

For `CN(C)c1cc2c3ccccc3n(C)c2cc1N`, the IC50 was > 66 µM (inactive) in experiment [4], 22.8 µM (inactive) in [5] and 12.7 µM (active) in [12].

Regarding `CCN(c1ccccc1)S(=O)(=O)c1ccc(Cl)c(NC(=O)CN(C)C2CCN(C)CC2)c1`, the EC50 in [9] is > 150 µM (inactive); in [10], 3.82 µM (active); in experiment [13], 0.395 µM (active); in experiment [14] it was > 60 µM (not active). In addition, in experiment [12], the IC50 was 80.2 µM (active).

For the compound `Cc1cc2cc(CNC(=O)c3ccc4c(c3)OCO4)ccc2n1C`, the IC50 in [4] and in experiment [5] was > 66 µM (inactive) in each case.

As to `Nc1n[nH]c(SCc2cccc(Br)c2)n1`, the EC50 in [6], in experiment [7] and in experiment [8] was > 120 µM (not active) each time.
